The values below come from patent publication US20230200216A1, “ORGANIC LIGHT-EMITTING DEVICE” (CANON KABUSHIKI KAISHA, priority 2021, published 2023).

The data set in a line: Sublimability: decomposition temperature (TG/DTA, 5% mass loss) minus sublimation temperature. The data set is classed as physicochemical. The settings on record: 5% mass reduction, sublimation: Ar flow, vacuum 1×10^−1 Pa. An excerpt:
Table 4 presents the results of comparisons in sublimability between exemplified compound RD21 serving as the first guest and compound 1 and between exemplary compound RD30 serving as the first guest and compound 2. As an evaluation of sublimability, comparisons are made of the temperature difference between the sublimation temperature and the decomposition temperature (ΔT=decomposition temperature−sublimation temperature). A larger temperature difference can be said to indicate higher sublimability. With regard to the decomposition temperature, TG/DTA measurement was performed, and the temperature at which a reduction in mass reached 5% was defined as the decomposition temperature. With regard to the sublimation temperature, the sublimation purification was performed by slowly increasing the temperature while allowing Ar to flow at a degree of vacuum of 1×10^−1 Pa, and the temperature at which a sufficient sublimation rate was reached was defined as the sublimation temperature.
As for `c1ccc(-c2ccccc2-c2ccc(-c3ccccc3-c3ccccc3)c3c2-c2ccc4c5ccc6c7c(ccc(c8ccc-3c2c48)c75)-c2c(-c3ccccc3)ccc(-c3ccccc3)c2-6)cc1` [Exemplified compound RD30], the “ΔT = decomposition temperature − sublimation temperature” value stood at 130 °C.

On to `c1ccc(-c2ccc(-c3ccccc3)c3c2-c2ccc4c5ccc6c7c(ccc(c8ccc-3c2c48)c75)-c2c(-c3ccc4ccccc4c3)ccc(-c3ccc4ccccc4c3)c2-6)cc1` [Compound 2], for which the “ΔT = decomposition temperature − sublimation temperature” value was 60 °C.

With `CC(C)(C)c1cc2cc(C(C)(C)C)cc3c4ccc5c6cc7c(-c8ccccc8)c8c9ccc%10c%11cc(C(C)(C)C)cc%12cc(C(C)(C)C)cc(c%13ccc(c8c(-c8ccccc8)c7cc6c6ccc(c(c1)c23)c4c65)c9c%13%10)c%12%11` [Compound 1], the “ΔT = decomposition temperature − sublimation temperature” value was determined as 40 °C.

Consider `c1ccc(-c2ccccc2-c2c3cc4c(cc3c(-c3ccccc3)c3c5ccc6c7cccc8cccc(c9ccc(c23)c5c69)c87)c2ccc3c5cccc6cccc(c7ccc4c2c37)c65)cc1` [Exemplified compound RD21], for which the “ΔT = decomposition temperature − sublimation temperature” value was 100 °C.
